Patent publication US9718817B2, “Aryl and heteroaryl ether compounds as ROR gamma modulators” (Glenmark Pharmaceuticals S.A., priority 2014, dated 2017)

Molecular target: T1, GST-tagged ROR gamma ligand binding domain (LBD) (Homo sapiens, UniProt P51449)
T1 construct: purchased Invitrogen
T1 sequence (P51449 269-508 limits assumed): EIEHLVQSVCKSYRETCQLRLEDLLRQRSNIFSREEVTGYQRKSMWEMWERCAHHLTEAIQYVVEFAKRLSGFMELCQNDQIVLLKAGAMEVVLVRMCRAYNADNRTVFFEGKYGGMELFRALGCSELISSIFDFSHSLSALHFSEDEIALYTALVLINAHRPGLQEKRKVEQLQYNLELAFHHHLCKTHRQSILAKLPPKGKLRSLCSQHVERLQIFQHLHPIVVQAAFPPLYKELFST
Test: TR-FRET assay for ROR gamma (LanthaScreen co-activator peptide recruitment)
Format: biochemical
Conditions: for IC50: class symbols, from dose response curve; for inhibition at 1 µM: compound 1 μM; for inhibition at 1 µM / inhibition at 10 µM: TR-FRET ratio 520/495, percent of control; for inhibition at 10 µM: compound 10 μM
How it was run: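 Antagonist mode: 10 nM GST-RORγ LBD pre-incubated with compound 1 h at 22 °C in 25 mM HEPES pH 7.4, 100 mM NaCl, 5 mM DTT, 0.01% BSA, 4% DMSO final. Then 300 nM fluorescein-D22 co-activator peptide plus 10 nM Tb-anti-GST added, 1 h at room temperature. IC50 by nonlinear regression of the 520/495 TR-FRET ratio as percent of no-compound control.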

Structure (SMILES)	IC50	inhibition at 1 µM	inhibition at 10 µM
CCn1c(C(C)(C)Oc2cc(F)c(F)cc2F)nc2cc(NC(=O)Cc3ccc(S(=O)(=O)CC)cc3)ccc21 [Example 92, 2-(4-Ethanesulfonyl-phenyl)-N-{1-ethyl-2-[1-methyl-1-(2,4,5-trifluoro-phenoxy)-ethyl]-1H-benzoimidazol-5-yl}-acetamide]	< 50 nM	91.5%	93.1%
CCS(=O)(=O)c1ccc(CC(=O)Nc2ccc(C#CC(C)(C)Oc3ccc(Cl)c(F)c3)cc2)cc1 [Example 66, N-{4-[3-(4-Chloro-3-fluoro-phenoxy)-3-methyl-but-1-yn-1-yl]-phenyl}-2-(4-ethanesulfonyl-phenyl)-acetamide]	< 50 nM	84.3%	87.5%
CCS(=O)(=O)c1ccc(CC(=O)Nc2ccc(OC(C)(C)c3nc4cc(F)ccc4n3C(C)C)cc2)cc1 [Example 20, 2-(4-Ethanesulfonyl-phenyl)-N-{4-[1-(5-fluoro-1-isopropyl-1H-benzoimidazol-2-yl)-1-methyl-ethoxy]-phenyl}-acetamide]	> 100 nM	79.8%	85.2%
CCS(=O)(=O)c1ccc(CC(=O)Nc2ccc(OC3(c4ccc(Cl)cc4Cl)CCCC3)c(F)c2)cc1 [Example 137, N-(4-((1-(2,4-Dichlorophenyl)cyclopentyl)oxy)-3-fluorophenyl)-2-(4-(ethylsulfonyl)phenyl)acetamide]	< 50 nM	80%	86.5%
CCS(=O)(=O)c1ccc(CC(=O)Nc2ccc(C#CC(C)(C)Oc3ccc(Cl)cc3Cl)cc2)cc1 [Example 63, N-{4-[3-(2,4-Dichloro-phenoxy)-3-methyl-but-1-yn-1-yl]-phenyl}-2-(4-ethanesulfonyl-phenyl)-acetamide]	< 50 nM	80.5%	84.5%
CCS(=O)(=O)c1ccc(CC(=O)Nc2ccc(OC(C)(C)c3ccc(C(F)(F)F)c(F)c3)cc2)cc1 [Example 10, 2-(4-Ethanesulfonyl-phenyl)-N-{4-[1-(3-fluoro-4-trifluoromethyl-phenyl)-1-methyl-ethoxy]-phenyl}-acetamide]		70.9%	81.5%
CCn1c(C(F)(F)Oc2ccc(NC(=O)Cc3ccc(S(=O)(=O)CC)cc3)cc2)nc2cc(Cl)ccc21 [Example 22, N-{4-[(5-Chloro-1-ethyl-1H-benzoimidazol-2-yl)-difluoro-methoxy]-phenyl}-2-(4-ethanesulfonyl-phenyl)-acetamide]		74.4%	82.8%
CCS(=O)(=O)c1ccc(CC(=O)Nc2ccc(OC(C)(C)Cn3ccc4cc(Cl)ccc43)c(F)c2)cc1 [Example 104, N-{4-[2-(5-Chloro-indol-1-yl)-1,1-dimethyl-ethoxy]-3-fluoro-phenyl}-2-(4-ethanesulfonyl-phenyl)-acetamide]	50 to 100 nM	74.5%	79.2%
CCS(=O)(=O)c1ccc(CC(=O)Nc2ccc(OC3(c4ccc(Cl)c(F)c4)CCCCC3)cc2)cc1 [Example 124, N-{4-[1-(4-Chloro-3-fluorophenyl)-cyclohexyloxy]-phenyl}-2-(4-ethanesulfonyl-phenyl)-acetamide]	< 50 nM	82.2%	84.8%
CCS(=O)(=O)c1ccc(CC(=O)Nc2ccc(OC3(c4ccc(Cl)c(F)c4)CCOCC3)nc2)cc1 [Example 55, N-{6-[4-(4-Chloro-3-fluoro-phenyl)-tetrahydro-pyran-4-yloxy]-pyridin-3-yl}-2-(4-ethanesulfonyl-phenyl)-acetamide]		75.5%	80.3%
CCS(=O)(=O)c1ccc(CC(=O)Nc2ccc(OC3(c4ccc(C(F)(F)F)c(F)c4)COC3)cc2)cc1 [Example 48, (4-Ethanesulfonyl-phenyl)-N-{4-[3-(3-fluoro-4-trifluoromethyl-phenyl)-oxetan-3-yloxy]-phenyl}-acetamide]		60.3%	77.4%
CCS(=O)(=O)c1ccc(CC(=O)Nc2ccc3c(c2)nc(C(C)(C)Oc2ccc(Cl)cc2Cl)n3C)cc1 [Example 84, N-{2-[2-(2,4-Dichlorophenoxy)propan-2-yl]-1-methyl-1H-benzimidazol-5-yl}-2-[4-(ethylsulfonyl)phenyl]acetamide]	< 50 nM	89.7%	90.2%
